According to patent US10501518B2 (priority 2013, dated 2019):
Entries after “also recorded” stand apart in the source; their conditions may differ.

Key:
[1] = In vivo pharmacokinetics: peptide content of mouse plasma by cAMP GloSensor assay; conditions: mice, subcutaneous injection, 20 nmol/kg
Experimental: (§1) Compound concentrations were determined by submitting plasma to a cAMP GloSensor assay, quantification of luminescence readout, and conversion to peptide concentration via standard curve. […] See also FIGS. 12A, 12B and 12C.
FIG. 12 B is a magnification of FIG. 12A to highlight the data from early time points. FIG. 12 C is a dose-response curve used to convert the raw luminescence time course found in FIG. 12A to the peptide concentration time course found in FIG. 3B. This curve was generated from a single assay run immediately before assessing the raw luminescence time course.
Blood was withdrawn just prior to injection (t=0) or at times thereafter. Tail vein blood was collected and treated with protease inhibitors (aprotinin, leupeptin, EDTA), centrifuged to remove blood cells, mixed with cAMP response assay buffer, and administered to GP2.3 cells. The raw luminescence readouts recorded in this assay were converted to blood peptide concentrations through use of a standard curve relating luminescence response to known peptide concentrations under identical assay conditions.

WT rat PTHR-1 = target: T1, WT rat PTHR-1 (Rattus norvegicus, UniProt P25961); assay: cAMP GloSensor dose-response in GR-35 cells expressing rat PTHR-1; format: cell-based; conditions: for cAMP (rPTHR-1) Max / EC50: Table 2; for cAMP (rPTHR-1) Max: luminescence counts per second relative to PTH(1-34); for cAMP (rPTHR-1) Max / Max: 12-16 minutes after ligand addition; for EC50: read-out: cAMP (rPTHR-1) EC50; for Fold nM PTH(1-34) / Max: Table 7; for Fold nM PTH(1-34): EC50 relative to PTH(1-34); for Max: GR-35 cells, mean ± SEM
T1 construct: expressed in transfected cells
T1 sequence (P25961 27-591): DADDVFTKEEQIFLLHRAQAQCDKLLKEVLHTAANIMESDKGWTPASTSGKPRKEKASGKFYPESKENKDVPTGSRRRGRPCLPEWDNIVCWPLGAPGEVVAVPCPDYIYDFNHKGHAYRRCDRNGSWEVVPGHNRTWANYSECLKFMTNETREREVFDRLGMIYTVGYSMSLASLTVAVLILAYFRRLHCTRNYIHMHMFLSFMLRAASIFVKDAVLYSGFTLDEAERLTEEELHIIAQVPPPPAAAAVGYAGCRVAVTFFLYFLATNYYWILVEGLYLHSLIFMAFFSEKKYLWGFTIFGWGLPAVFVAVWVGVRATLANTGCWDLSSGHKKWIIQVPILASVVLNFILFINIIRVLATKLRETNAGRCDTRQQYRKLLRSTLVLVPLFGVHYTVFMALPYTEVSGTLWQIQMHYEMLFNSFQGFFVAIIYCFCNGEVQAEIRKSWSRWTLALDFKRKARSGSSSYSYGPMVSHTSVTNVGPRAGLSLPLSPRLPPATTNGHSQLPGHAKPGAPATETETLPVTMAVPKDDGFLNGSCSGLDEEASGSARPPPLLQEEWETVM

rPTHR-1 = target: T2, rPTHR-1 (Rattus norvegicus, UniProt P25961); assay: Washout assay of cAMP response in GR-35 cells; format: cell-based; conditions: for AUC-on / AUC-washout / AUC Ratio: Table 11; for AUC-on: luminescence AUC in the 14 minutes before washout, PTH(1-34), D6, M-PTH(1-34) 0.3 nM, B5 3 nM; for AUC-washout: luminescence AUC in the 120 minutes following washout; for AUC Ratio: ratio of AUC-washout to AUC-on; for cAMP response following washout, in words: rPTHR-1-expressing cells, relative to PTH(1-34)
T2 construct: expressed in transfected cells
T2 sequence (P25961 27-591): T1 sequence (P25961 27-591)
Experimental: FIGS. 11A and 11B present the results of rPTHR-1 washout experiments. Assays of cAMP accumulation were performed using HEK-293-derived cell lines stably transfected to express the luciferase-based cAMP GloSensor™-brand protein along with WT-rPTHR-1 (GR-35 cells). Data are means (±SEM) of n=3 (M-PTH) or n=5 experiments, each performed in quadruplicate. […] Ligand was applied and luminescence was recorded for 14 minutes thereafter. FIG. 11B depicts data for the accumulation of cAMP following ligand wash-out in cells expressing the rPTHR-1. The cells from FIG. 11A were removed from the plate reader at the end of the 14-min “ligand-on” phase, rinsed twice to remove unbound ligand, treated with fresh medium containing luciferin, and luminescence was again recorded for an additional 120 min of “wash-out.” Luminescence was recorded using a PerkinElmer Envision plate reader; cells were preloaded with luciferin for 30 min before ligand addition.
HEK293 cell monolayers expressing rat PTHR-1 (GR35 cells) were treated with ligand in for 14 minutes. This buffer was then discarded, and the cell monolayer was rinsed (2×). Buffer containing luciferin was introduced for 120 minutes. Luminescence response was recorded before and after washout, with luminescence readings recorded every 2 minutes. The area under the curve (AUC) for luminescence response curve was determined using GraphPad Prism. See […] for a graphs depicting the average of n=3 (M-PTH) or n=5 washout experiments. See Table 11 for a description of composite data from n=3 or 5 washout experiments.
Data were processed by using the Microsoft Excel and GraphPad Prism 4.0 software packages. Data from binding and cAMP dose-response assays were analyzed using a sigmoidal dose-response model with variable slope. Washout responses were assessed by quantifying the area under the luminescence response curve (AUC) following washout. Post-washout AUC was normalized by dividing the post-washout AUC by the pre-washout AUC. Paired data sets were statistically compared by using Student's t test (two-tailed) assuming unequal variances for the two sets.

PTH2R/PTH1R = assay: cAMP response selectivity between PTH2R and PTH1R; format: cell-based; conditions: most selective; for cAMP response PTH1R/PTH2R: Table 17
Text: Selected analogs containing beta-amino acid substitutions selectively signal through one or the other of the two receptors. Without being bound to any underling biological phenomenon or mechanism, PTHR-2 likely serves an alternative function to PTHR-1 as it is highly expressed in the central nervous system. In contrast, PTHR-1 is highly expressed in bone and kidney, but not in the CNS. The analogs disclosed herein are thus useful as therapeutic compounds that a specific agonists or antagonists of PTHR-1 and PTHR-2.

[2] = Calcemic response in mice after subcutaneous injection; format: in vivo; conditions: 20 nmol/kg
Experimental: as §1
Mice (C57BL/6, male, age 9-12 weeks) were treated in accordance with the ethical guidelines adopted by Massachusetts General Hospital. […] Blood was withdrawn just prior to injection (t=0) or at times thereafter. Tail vein blood was collected and immediately used for analysis. Blood Ca^2+ concentration was measured with a Chiron Diagnostics model 634 Ca^2+/pH analyzer.

Compound | level / persistence in the mouse bloodstream [1] | cAMP (rPTHR-1) Max (WT rat PTHR-1) | EC50 (WT rat PTHR-1) [nM] | Fold nM PTH(1-34) (WT rat PTHR-1) | Max (WT rat PTHR-1) | AUC-on (rPTHR-1) | AUC-washout (rPTHR-1) | AUC Ratio (rPTHR-1) | cAMP response following washout, in words (rPTHR-1) | cAMP response PTH1R/PTH2R (PTH2R/PTH1R) | calcemic response (blood Ca^2+ concentration) [2] | cAMP response PTH2R/PTH1R (PTH2R/PTH1R; Table 16)
CC[C@H](C)[C@H](NC(=O)[C@H](CCC(=O)O)NC(=O)[C@H](CO)NC(=O)[C@@H](NC(=O)[C@@H](N)CO)C(C)C)C(=O)N[C@@H](CCC(N)=O)C(=O)N[C@@H](CC(C)C)C(=O)N[C@@H](CCSC)C(=O)N[C@@H](Cc1c[nH]cn1)C(=O)N[C@@H](CC(N)=O)C(=O)N[C@@H](CC(C)C)C(=O)NCC(=O)N[C@@H](CCCCN)C(=O)N[C@@H](Cc1c[nH]cn1)C(=O)N[C@@H](CC(C)C)C(=O)N[C@@H](CC(N)=O)CC(=O)N[C@@H](CO)C(=O)N[C@@H](CCSC)C(=O)N[C@@H](CCC(=O)O)C(=O)N[C@@H](CCCNC(=N)N)CC(=O)N[C@H](C(=O)N[C@@H](CCC(=O)O)C(=O)N[C@@H](Cc1c[nH]c2ccccc12)C(=O)N[C@H](CC(=O)N[C@@H](CCCNC(=N)N)C(=O)N[C@@H](CCCCN)C(=O)N[C@@H](CCCCN)C(=O)N[C@H](CC(=O)N[C@@H](CCC(N)=O)C(=O)N[C@@H](CC(=O)O)C(=O)N[C@H](C(=O)N[C@@H](CCC(N)=O)CC(=O)N[C@@H](CC(N)=O)C(=O)N[C@@H](Cc1ccccc1)C(N)=O)C(C)C)CC(C)C)CC(C)C)C(C)C [B5] | prolonged bioavailability | 0.78 | 1.45 | 3.49 | 51 ± 21 luminescence counts per second × 10−3 | 130,000 ± 50,000 | 84,000 ± 23,000 | 0.80 ± 0.16 | short-lived cAMP response | 43 | more transient rise in Ca^2+ concentration relative to PTH(1-34) | –
CC[C@H](C)[C@H](NC(=O)[C@H](CCC(=O)O)NC(=O)[C@H](CO)NC(=O)[C@@H](NC(=O)[C@@H](N)CO)C(C)C)C(=O)N[C@@H](CCC(N)=O)C(=O)N[C@@H](CC(C)C)C(=O)N[C@@H](CCSC)C(=O)N[C@@H](Cc1cnc[nH]1)C(=O)N[C@@H](CC(N)=O)C(=O)N[C@@H](CC(C)C)C(=O)NCC(=O)N[C@@H](CCCCN)C(=O)N[C@H](CC(=O)N[C@@H](CC(C)C)C(=O)N[C@@H](CC(N)=O)C(=O)N[C@@H](CO)C(=O)N[C@@H](CCSC)CC(=O)N[C@@H](CCC(=O)O)C(=O)N[C@@H](CCCNC(=N)N)C(=O)N[C@H](C(=O)N[C@@H](CCC(=O)O)CC(=O)N[C@@H](Cc1c[nH]c2ccccc12)C(=O)N[C@@H](CC(C)C)C(=O)N[C@@H](CCCNC(=N)N)C(=O)N[C@@H](CCCCN)CC(=O)N[C@@H](CCCCN)C(=O)N[C@@H](CC(C)C)C(=O)N[C@@H](CCC(N)=O)C(=O)N[C@@H](CC(=O)O)CC(=O)N[C@H](C(=O)N[C@@H](Cc1cnc[nH]1)C(=O)N[C@@H](CC(N)=O)C(=O)N[C@H](CC(N)=O)Cc1ccccc1)C(C)C)C(C)C)Cc1c[nH]c2ccccc12 [D6] | persists even longer in the bloodstream than does B5; also recorded: persists much longer in the mouse bloodstream than does PTH(1-34) | 0.76 | 0.33 | 0.79 | 50 ± 15 luminescence counts per second × 10−3 | 100,000 ± 36,000 | 130,000 ± 37,000 | 1.50 ± 0.35 | comparable to that of PTH(1-34) | 33 | sustained, with no diminution six hours after injection | –
CC[C@H](C)[C@H](NC(=O)[C@H](CCC(=O)O)NC(=O)[C@H](CO)NC(=O)[C@@H](NC(=O)[C@@H](N)CO)C(C)C)C(=O)N[C@@H](CCC(N)=O)C(=O)N[C@@H](CC(C)C)C(=O)N[C@@H](CCSC)C(=O)N[C@@H](Cc1cnc[nH]1)C(=O)N[C@@H](CC(N)=O)C(=O)N[C@@H](CC(C)C)C(=O)NCC(=O)N[C@@H](CCCCN)C(=O)N[C@@H](Cc1cnc[nH]1)C(=O)N[C@@H](CC(C)C)C(=O)N[C@@H](CC(N)=O)C(=O)N[C@@H](CO)C(=O)N[C@@H](CCSC)C(=O)N[C@@H](CCC(=O)O)C(=O)N[C@@H](CCCN=C(N)N)C(=O)N[C@H](C(=O)N[C@@H](CCC(=O)O)C(=O)N[C@@H](Cc1c[nH]c2ccccc12)C(=O)N[C@@H](CC(C)C)C(=O)N[C@@H](CCCN=C(N)N)C(=O)N[C@@H](CCCCN)C(=O)N[C@@H](CCCCN)C(=O)N[C@@H](CC(C)C)C(=O)N[C@@H](CCC(N)=O)C(=O)N[C@@H](CC(=O)O)C(=O)N[C@H](C(=O)N[C@@H](Cc1cnc[nH]1)C(=O)N[C@@H](CC(N)=O)C(=O)N[C@@H](Cc1ccccc1)C(=O)O)C(C)C)C(C)C [PTH(1-34), reference compound] | consistently lower than the level of B5 | 1.00 | – | – | 65 ± 31 luminescence counts per second × 10−3 | 92,000 ± 34,000 | 100,000 ± 25,000 | – | – | 0.9 | transient rise in the blood concentration of Ca^2+, which peaks after about one hour | 1.1
